In data set [1] the test system is RBM25. Kind of data set: Real-time RT-PCR of RBM25 mRNA in Jurkat cells and H9 hESC-cardiomyocytes. Type of data set: cell-based, human. The following applies: Ang II-treated (100 nmol/L). How it is done:
(§1) Cell culture assays: Jurkat T cell clones E6.1 (ATCC, Manassas, Va.) were cultured at 37° C. and 5% CO2 in RPMI 1640 medium supplemented with 10% heat inactivated fetal calf serum, 4 mM glutamine, 75 units/mL streptomycin and 100 units/mL penicillin. WA09 (H9) human undifferentiated ESCs were obtained through the National Stem Cell Bank and maintained on irradiated mouse embryonic fibroblasts at 37° C. with 5% CO2. The culture medium consisted of DMEM/F12 (Invitrogen, Carlsbad, Calif.) supplemented with 15% knockout serum, 1% non-essential amino acids, 1 mmol/L L-glutamine, 0.1 mmol/L β-mercaptoethanol, and basic fibroblast growth factor of 20 ng/mL.
(§2) Real-Time PCR quantification: Total RNA was isolated from cultured cells using the Qiagen RNeasy Mini Kit (Valencia, Calif.). Total RNA from human ventricles was isolated using the RNeasy Lipid Tissue Mini Kit (Qiagen). Reverse transcription was carried out at 42° C. for 1 h with Powerscript reverse transcriptase (Roche). β-Actin was used as a reference when making quantitative comparison.
(§3) Because AngII and hypoxia are common in heart failure, we investigated whether these two conditions could influence RBM25 and hLuc7A levels. […] The Jurkat cells and H9 hESC-CMs were divided into three experiment groups: normoxia, hypoxia-treated (1% O2), and Ang II-treated (100 nmol/L). […]

In data set [2] the test system is hLuc7A. Kind of data set: Real-time RT-PCR of hLuc7A mRNA in Jurkat cells and H9 hESC-cardiomyocytes. Type of data set: cell-based, human. The following applies: Ang II-treated (100 nmol/L). The procedure:
as §1, §2, §3

Data set [3] concerns RBM25. Kind of data set: Western blot of RBM25 in Jurkat cells. To be noted: Ang II 100 nmol/L, vs control group. Type of data set: cell-based, human. An excerpt:
(§4) Western blot analysis: The Mini-PROTEAN® Tetra Electrophoresis System from BioRad was used for Western blot analysis. Anti-Nav1.5 antibody, recognizing all channel variants, was provided by Dr. Peter Mohler (University of Iowa, Iowa City, Iowa). Anti-RBM25 antibody was provided by Dr. Huang (Dana-Farber Cancer Institute, Harvard, Boston, Mass.). Anti-PERK and hLuc7A antibodies were purchased from R&D Systems (Minneapolis, Minn.) and Millipore, (Billerica, Mass.).
(§5) The upregulation of splicing factors RBM25 and hLuc7A in Jurkat cells was further confirmed by Western blot. The Jurkat cells were divided into three experiment groups: normoxia, hypoxia-treated (1% O2), and Ang II-treated (100 nmol/L). The expressions of RBM25 and hLuc7A were analyzed by Western blot at three time points (12 h, 24 h, and 48 h) for hypoxia-treated group and at four time points (24 h, 48 h, 72 h, and 96 h) for Ang II-treated group. […] The density of hLuc7A was increased by 242.3±9.5%, 236.1±8.4% and 268.8±9.8% in hypoxia-treated group at time points 12 h, 24 h and 48 h, respectively, and was increased by 256.3±9.1%, 246.5±8.6%, 279.7±9.3% and 283.6±9.9% in Ang II-treated group at time points 24 h, 48 h, 72 h and 96 h, respectively (p<0.05).

Data set [4] concerns hLuc7A. Kind of data set: Western blot of hLuc7A in Jurkat cells. The following applies: Ang II 100 nmol/L, vs control group. The class given is cell-based, human.
Text: as §4, §5

A further data set deals with SCN5A variant E28C. As to the kind of experiment: RT-PCR of SCN5A variant E28C. The class given is cell-based, human. To be noted: Ang II treatment. The procedure:
as §2
(§6) Changes in hLuc7A and RBM25 correlated with SCN5A E28C and E28D variant abundances. Under hypoxia, the expression of SCN5A variants E28C and E28D were increased by 373.5±5.7% and 636.2±7.6%, respectively (p<0.05), while the expressions of the full length SCN5A transcript was decreased by 64.6±4.9% (p<0.05). With Ang II treatment, the expressions of the variants were increased by 291.4±5.2% and 433.7±6.5% for E28C and E28D, respectively (p<0.05), while the expression of the full length SCN5A transcipt was decreased by 78.9±5.4% (p<0.05).
(§7) The siRNA knockdown efficiency was estimated by both RT-PCR and Western blot and was not less than 50%. The expressions of SCN5A and the variants E28C and E28D were measured by RT-PCR in all experiment groups at time points of maximal siRNA effect.

The subject of another data set is SCN5A variant E28D. As to the kind of experiment: RT-PCR of SCN5A variant E28D. Type of data set: cell-based, human. To be noted: Ang II treatment. How it is done:
as §2, §6, §7

In data set [5] the test system is full length SCN5A transcript. As to the kind of experiment: RT-PCR of full length SCN5A transcript. Type of data set: cell-based, human. The following applies: Ang II treatment. How it is done: as §2, §6
Hypoxia and AngII were used to increase abnormal SCN5A splicing. The expressions of PERK and sXBP1 were measured by RT-PCR. […] To test if this upregulation of one arm of the UPR was mediated by SCN5A mRNA variants, exogenous E28C and E28D were introduced. The Jurkat cells were divided into four experiment groups: normal control, empty vector control, variant E28C overexpressioned cells, and variant E28D overexpressioned cells. […]

The subject of data set [6] is PERK. Kind of data set: RT-PCR of PERK expression. The class given is cell-based, human. The following applies: Ang II-treated, 48 h. How it is done:
as §2
(§8) Hypoxia and AngII were used to increase abnormal SCN5A splicing. The expressions of PERK and sXBP1 were measured by RT-PCR. […] To test if this upregulation of one arm of the UPR was mediated by SCN5A mRNA variants, exogenous E28C and E28D were introduced. The Jurkat cells were divided into four experiment groups: normal control, empty vector control, variant E28C overexpressioned cells, and variant E28D overexpressioned cells. The expression of PERK was measures by RT-PCR in each group at the time point 48 h. […] The upregulation of PERK in Jurkat cells was further confirmed by Western blot.

The subject of a further data set is sXBP1. As to the kind of experiment: RT-PCR of sXBP1 expression. Type of data set: cell-based, human. The following applies: Ang II-treated. How it is done: as §2, §8
Data set [7] relates to PERK. As to the kind of experiment: Western blot of PERK in Jurkat cells. The class given is cell-based, human. To be noted: Ang II-treated, vs control group.
Text: as §4, §8

For data set [8], the system named is major UPR components (PERK, calnexin, CHOP). As to the kind of experiment: Induction of major UPR components in hESC-CMs. Type of data set: cell-based, human. To be noted: 100 nmol/L Ang II. The source says:
The correlation of expression changes among PERK, major human embryonic stem cell-derived cardiomyocytes (hESC-CMs). […] E28C and E28D constructs were transduced to overexpress the truncated proteins.
Finally, downregualtion of PERK prevented the loss of full-length SCN5A mRNA abundance with these stimuli.

In data set [9] the target is RBM25 (Homo sapiens, UniProt P49756). Kind of data set: Gel mobility shift assay. To be noted: 0.2 nM RNA, variable amounts of protein, 30 min at 4° C. The class given is binding. How it is done: (§9) Gel mobility shift assays: The biotinylated wild-type ([…]) and mutant ([…]) RNA substrates (SEQ ID NOs: 32 and 33, respectively) were synthesized by Invitrogen. Binding of biotinylated RNA to RBM25 was achieved by incubating 0.2 nM RNA and variable amounts of protein for 30 min at 4° C. in 20 μL of binding buffer (10 mM Tris-HCl, 10 mM HEPES, 100 mM NaCl, 0.1% Triton X-100, 2 mM MgCl2, 1.5 mM dithiothreitol (DTT) pH 7.5, 7% glycerol). For the competition assays, a molar excess of unlabeled competitor RNAs at various fold levels was added to the pre-incubated reaction mixture. Samples were fractionated in a native 5% polyacrylamide gel, transferred to Hybond-N+nylon membrane (Amersham Biosciences), and detected with a LightShift chemiluminescent electrophoretic mobility shift assay kit (Pierce) by following the manufacturer's protocol.
(§10) Gel mobility shift assays were performed as described previously with modification (Shang et al., Am. J. Physiol. Cell. Physiol., 292:C886-95, 2007, the disclosure of which is incorporated herein by reference in its entirety.). The biotinylated wild-type ([…]) and mutant ([…]) RNA substrates (SEQ ID NOs: 32 and 33, respectively) were synthesized. Binding of biotinylated RNA to RBM25 was achieved by incubating 0.2 nM RNA and variable amounts of protein for 30 min at 4° C. in 20 μL binding buffer. […]

Data set [10] addresses T1, RBM25 (UniProt P49756 SEQ:1-843). Kind of data set: EMSA; mutated canonical site; 0.2 nM RNA, 100 mM NaCl, 2 mM MgCl2, pH 7.5, 4 C. To be noted: label: biotin. The procedure:
as §9, with “MgCl₂,” for “MgCl2,”
as §10

In data set [11] the target is T1, RBM25. As to the kind of experiment: EMSA; concentration-dependent; 0.2 nM RNA, 10 mM Tris-HCl, 10 mM HEPES, 100 mM NaCl, 2 mM MgCl2, pH 7.5, 4 C; unlabeled competitor assay also run. The following applies: label: biotin. How it is done: as §9, with “MgCl₂,” for “MgCl2,”
as §10

T1 sequence (P49756 whole entry): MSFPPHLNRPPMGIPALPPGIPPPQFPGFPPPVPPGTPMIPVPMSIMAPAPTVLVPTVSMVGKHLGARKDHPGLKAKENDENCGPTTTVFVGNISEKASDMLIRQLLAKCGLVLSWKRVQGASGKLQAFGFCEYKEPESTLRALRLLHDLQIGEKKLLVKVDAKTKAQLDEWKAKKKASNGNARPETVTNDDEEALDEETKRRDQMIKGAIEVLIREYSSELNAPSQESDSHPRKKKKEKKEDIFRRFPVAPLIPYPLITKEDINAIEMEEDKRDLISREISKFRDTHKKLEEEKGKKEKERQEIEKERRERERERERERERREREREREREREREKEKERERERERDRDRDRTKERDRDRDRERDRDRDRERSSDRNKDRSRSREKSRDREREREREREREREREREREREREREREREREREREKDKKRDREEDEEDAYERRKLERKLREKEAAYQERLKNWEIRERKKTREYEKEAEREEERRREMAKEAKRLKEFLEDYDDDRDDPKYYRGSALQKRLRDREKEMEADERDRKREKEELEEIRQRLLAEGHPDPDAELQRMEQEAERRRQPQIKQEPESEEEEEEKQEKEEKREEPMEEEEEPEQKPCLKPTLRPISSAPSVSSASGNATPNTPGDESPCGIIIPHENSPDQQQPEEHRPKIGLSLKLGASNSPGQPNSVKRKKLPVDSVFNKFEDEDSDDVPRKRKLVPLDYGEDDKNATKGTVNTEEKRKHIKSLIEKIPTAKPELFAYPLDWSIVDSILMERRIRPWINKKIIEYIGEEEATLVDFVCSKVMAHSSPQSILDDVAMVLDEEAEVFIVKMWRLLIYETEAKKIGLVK
RBM25 (Homo sapiens, UniProt P49756), sequence (P49756 whole entry): as above

For “angiotensin II (DRVYIHPF; Angiotensin-2; UniProt P01019 25-32, looked up) [Ang II, angiotensin II, used at 100 nmol/L to treat Jurkat cells and hESC-CMs]”, the entries for the “expression of RBM25 increased by” value in the data set on RBM25 [1] (ES cells (H9 hESC-CMs)) and in the data set with RBM25 [1] (Jurkat cells) were 42.1±4.7% and 50.8±4.9%, respectively. For the same molecule, the entries for the “expression of hLuc7A increased by” value with hLuc7A [2] (ES cells (H9 hESC-CMs)) and in the data set with hLuc7A [2] (Jurkat cells) were 181.2±6.7% and 187.3±7.9%, respectively. In addition, the “density of RBM25 increased by” value with RBM25 [3] (24 h) is 209.5±8.8%; in the data set with RBM25 [3] (48 h), 212.6±9.7%; with RBM25 [3] (72 h) it was 181.3±8.3%; with RBM25 [3] (96 h) it was 198.8±8.7%. The “density of hLuc7A increased by” value with hLuc7A [4] (24 h) was 256.3±9.1%; in the data set on hLuc7A [4] (48 h), 246.5±8.6%; in the data set with hLuc7A [4] (72 h), 279.7±9.3%; in the data set on hLuc7A [4] (96 h) it was 283.6±9.9%. Further, in the data set on SCN5A variant E28C, the “expression of SCN5A variant E28C increased by” value worked out at 291.4±5.2%. In addition, the “expression of SCN5A variant E28D increased by” value in the data set on SCN5A variant E28D turned out to be 433.7±6.5%. In addition, the “expression of the full length SCN5A transcript decreased by” value in data set [5] is 78.9±5.4%. The “expression of PERK increased by” value with PERK [6] is 14.2±0.6 fold. In addition, the “expression upregulation of sXBP1” value with sXBP1 is “no expression upregulation”. In the data set on PERK [7], the “density of PERK increased by” value came to 383.2±10.7%. Further, the “induction of major UPR components (PERK, calnexin, CHOP)” value in [8] was “could induce major UPR components”.

As to “CAGCAGGUUAGAGGCGGCCU (RNA, backbone not given here; biotinylated RNA) [mutant RNA substrate]”, the “binding of RBM25 to biotinylated RNA substrate” value in the data set with RBM25 [9] is recorded as “inability of RBM25 to bind”.

On to “CAGCAGGCGGGCAGCGGCCU (RNA, backbone not given here; biotinylated RNA) [wild-type RNA substrate]”, for which the “binding of RBM25 to biotinylated RNA substrate” value with RBM25 [9] is given as “bound the wild-type SCN5A sequence in a concentration-dependent manner”.

For the molecule CAGCAGGUUAGAGGCGGCCU (ssRNA) [SCN5A exon 28 mutant RNA], the binding result with RBM25 [10] was “no binding”.

With CAGCAGGCGGGCAGCGGCCU (ssRNA) [SCN5A exon 28 wild-type RNA], the binding result in the data set with RBM25 [11] is “binds”.

The values above are taken from US20120129179A1, “SCN5A SPLICING FACTORS AND SPLICE VARIANTS FOR USE IN DIAGNOSTIC AND PROGNOSTIC METHODS” (THE BOARD OF TRUSTEES OF THE UNIVERSITY OF ILLINOIS, priority 2009, published 2012).
